Tested on: Notch cellular signaling pathway
Test: Notch pathway activity predicted by Bayesian network model from target gene expression, MOLT4 cell line (data set GSE6495)
Assay type: cell-based, human
Conditions: MOLT4 cells, 48 hours, 5 μM
Text: Herein, an exemplary Bayesian network model as shown in FIG. 2 was used to model the transcriptional program of the Notch cellular signaling pathway in a simple manner. The model consists of three types of nodes: (a) a transcription factor (TF) element (with states “absent” and “present”) in a first layer 1; (b) target genes TG1, TG2, TGn (with states “down” and “up”) in a second layer 2, and; (c) measurement nodes linked to the expression levels of the target genes in a third layer 3. These can be microarray probesets PS1,1, PS1,2, PS1,3, PS2,1, PSn,1, PSn,m (with states “low” and “high”), as preferably used herein, but could also be other gene expression measurements such as RNAseq or RT-qPCR.
A suitable implementation of the mathematical model, herein, the exemplary Bayesian network model, is based on microarray data. The model describes (i) how the expression levels of the target genes depend on the activation of the TF element, and (ii) how probeset intensities, in turn, depend on the expression levels of the respective target genes. For the latter, probeset intensities may be taken from fRMA pre-processed Affymetrix HG-U133Plus2.0 microarrays, which are widely available from the Gene Expression Omnibus (GEO, www.ncbi.nlm.nih.gov/geo) and ArrayExpress (www.ebi.ac.uk/arrayexpress). […]

In the case of `C[C@H](NC(=O)Cc1cc(F)cc(F)c1)C(=O)N[C@H](C(=O)OC(C)(C)C)c1ccccc1` [DAPT], the “Notch cellular signaling pathway activity (odds that the TF element is present)” value (18 target genes shortlist model, vs untreated (FIG. 11)) is reported as “decrease in Notch activity” and the “Notch cellular signaling pathway activity (odds that the TF element is present)” value (26 target genes list model, vs untreated (FIG. 12)) is reported as “decrease in Notch activity”.

From patent US20190100790A1, “DETERMINATION OF NOTCH PATHWAY ACTIVITY USING UNIQUE COMBINATION OF TARGET GENES” (KONINKLIJKE PHILIPS N.V., priority 2017, published 2019)
